“And” between values parts separate entries of the source, which are not always exact repeats. Equal values may be shown once. Inconclusive results and toxic doses are left out. The calls were made as follows: active = survival T/C of 150% or more; inactive = T/C below 125% in these data.
Test system: P388 leukemia ip, CD2F1 mice, survival T/C
Test: NCI In Vivo Anticancer Drug Screen. Data for tumor model P388 Leukemia (intraperitoneal) in CD2F1 (CDF1) mice
Conditions: endpoint: median survival time, higher = longer survival
Outline: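 Mice carrying the transplanted tumor received test compound or vehicle. Survival was recorded in each group, and the value is the treated-group measurement divided by that of the vehicle-treated control group.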

[1] = dose: 12.5 mg/kg/injection, schedule: Q01DX009 (ip), vehicle: saline
[2] = dose: 25.0 mg/kg/injection, schedule: Q01DX009 (ip), vehicle: saline
[3] = dose: 50.0 mg/kg/injection, schedule: Q01DX009 (ip), vehicle: saline
[4] = dose: 100.0 mg/kg/injection, schedule: Q01DX009 (ip), vehicle: saline
[5] = dose: 50.0 mg/kg/injection, schedule: Q01DX009 (ip), vehicle: saline with Tween-80
[6] = dose: 100.0 mg/kg/injection, schedule: Q01DX009 (ip), vehicle: saline with Tween-80
[7] = dose: 200.0 mg/kg/injection, schedule: Q01DX009 (ip), vehicle: saline with Tween-80
[8] = dose: 400.0 mg/kg/injection, schedule: Q01DX009 (ip), vehicle: saline with Tween-80
[9] = dose: 25.0 mg/kg/injection, schedule: Q04DX002 (ip), vehicle: saline with Tween-80
[10] = dose: 50.0 mg/kg/injection, schedule: Q04DX002 (ip), vehicle: saline with Tween-80
[11] = dose: 100.0 mg/kg/injection, schedule: Q04DX002 (ip), vehicle: saline with Tween-80
[12] = dose: 50.0 mg/kg/injection, schedule: Q01DX009 (ip), vehicle: Klucel (hydroxypropylcellulose) (HPC)
[13] = dose: 100.0 mg/kg/injection, schedule: Q01DX009 (ip), vehicle: Klucel (hydroxypropylcellulose) (HPC)
[14] = dose: 200.0 mg/kg/injection, schedule: Q01DX009 (ip), vehicle: Klucel (hydroxypropylcellulose) (HPC)
[15] = dose: 200.0 mg/kg/injection, schedule: Q01DX009 (ip), vehicle: saline

Measured: T/C

C1Cc2onc(-c3noc4c3CCC4)c2C1
inactive: dose: 60.0 mg/kg/injection, schedule: Q01DX005 (ip), vehicle: saline 104 % of control | dose: 120.0 mg/kg/injection, schedule: Q01DX005 (ip), vehicle: saline 96 % of control | dose: 240.0 mg/kg/injection, schedule: Q01DX005 (ip), vehicle: saline 99 % of control

O=S(=O)(O)CN1CCN(CCN(CS(=O)(=O)O)CS(=O)(=O)O)CC1
inactive: dose: 50.0 mg/kg/injection, schedule: Q01DX005 (ip), vehicle: Klucel (hydroxypropylcellulose) (HPC) 100 % of control | dose: 100.0 mg/kg/injection, schedule: Q01DX005 (ip), vehicle: Klucel (hydroxypropylcellulose) (HPC) 100 % of control | dose: 200.0 mg/kg/injection, schedule: Q01DX005 (ip), vehicle: Klucel (hydroxypropylcellulose) (HPC) 96 % of control

Cc1nc2nc(=S)[nH]c(N)c2nc1C
inactive: [1] 103 % of control | [2] 95 % of control | [3] 95 % of control | [4] 100 % of control

O=C(O)c1ccc(O)c(C(=O)O)c1
inactive: [5] 94 % of control | [6] 94 % of control

NC(N)=N/N=C/C=N/N=C(N)N
inactive: dose: 6.25 mg/kg/injection, schedule: Q01DX009 (ip), vehicle: saline 118 % of control | dose: 6.25 mg/kg/injection, schedule: Q04DX003 (ip), vehicle: saline 100 % of control | [1] 100 % of control | [2] 95 % of control and 100 % of control | dose: 25.0 mg/kg/injection, schedule: Q04DX003 (ip), vehicle: saline 90 % of control and 100 % of control | [3] 86 % of control and 100 % of control | dose: 50.0 mg/kg/injection, schedule: Q04DX003 (ip), vehicle: saline 100 % of control | [4] 86 % of control | dose: 100.0 mg/kg/injection, schedule: Q04DX003 (ip), vehicle: saline 95 % of control and 100 % of control

CC(=O)OC1CCC2(C)C3CCC4(C)C(=CCC5(C(=O)O)CCC(C)(C)CC45)C3(C)CCC2C1(C)C (stereo unspecified)
inactive: dose: 0.25 mg/kg/injection, schedule: Q01DX009 (ip), vehicle: saline + Tween-80 + alcohol 97 % of control | dose: 0.5 mg/kg/injection, schedule: Q01DX009 (ip), vehicle: saline + Tween-80 + alcohol 101 % of control | dose: 1.0 mg/kg/injection, schedule: Q01DX009 (ip), vehicle: saline + Tween-80 + alcohol 106 % of control | dose: 2.0 mg/kg/injection, schedule: Q01DX009 (ip), vehicle: saline + Tween-80 + alcohol 97 % of control | dose: 4.0 mg/kg/injection, schedule: Q01DX009 (ip), vehicle: saline + Tween-80 + alcohol 106 % of control

CC(C)c1nc(-c2ccccc2)c(-c2ccccc2)[nH]1
inactive: [6] 90 % of control | [7] 90 % of control | [8] 95 % of control

O=C1CCC2ON=C(Br)C12 (stereo unspecified)
inactive: dose: 20.0 mg/kg/injection, schedule: Q01DX005 (ip), vehicle: distilled water + Tween-80 110 % of control | dose: 40.0 mg/kg/injection, schedule: Q01DX005 (ip), vehicle: distilled water + Tween-80 112 % of control | dose: 80.0 mg/kg/injection, schedule: Q01DX005 (ip), vehicle: distilled water + Tween-80 112 % of control

O=C(CSc1nnc(CSc2ccc(Cl)cc2)n1-c1ccccc1)NC(=O)Nc1ccccc1
inactive: dose: 7.5 mg/kg/injection, schedule: Q01DX005 (ip), vehicle: saline with Tween-80 94 % of control | dose: 15.0 mg/kg/injection, schedule: Q01DX005 (ip), vehicle: saline with Tween-80 90 % of control | dose: 30.0 mg/kg/injection, schedule: Q01DX005 (ip), vehicle: saline with Tween-80 86 % of control | dose: 60.0 mg/kg/injection, schedule: Q01DX005 (ip), vehicle: saline with Tween-80 88 % of control | dose: 240.0 mg/kg/injection, schedule: Q01DX005 (ip), vehicle: saline with Tween-80 89 % of control (2×) and 96 % of control

C=CCc1ccccc1C1=[N+](C)C(C)(C)CO1
inactive: [9] 100 % of control | [10] 102 % of control | [11] 97 % of control

N=C(/C(=C/c1ccccc1)c1ccccc1)c1ccccc1
inactive: [12] 107 % of control | [13] 113 % of control | [14] 118 % of control

CNC(=O)CCCCC(=O)NC
inactive: [5] 96 % of control | [6] 104 % of control | [7] 114 % of control | [8] 96 % of control

CC(=O)Oc1ccc(CC(=O)O)cc1
inactive: dose: 25.0 mg/kg/injection, schedule: Q01DX009 (ip), vehicle: saline with Tween-80 107 % of control | [5] 103 % of control | [6] 103 % of control | [7] 107 % of control

Cc1ccc(S)c(S)c1
inactive: [2] 100 % of control | [3] 108 % of control | [4] 100 % of control and 106 % of control and 113 % of control | [15] 101 % of control | dose: 400.0 mg/kg/injection, schedule: Q01DX009 (ip), vehicle: saline 94 % of control | dose: 600.0 mg/kg/injection, schedule: Q01DX009 (ip), vehicle: saline 91 % of control

NC(=S)N/N=C\c1[nH]c(=O)nc2ccccc12
inactive: [13] 100 % of control | [14] 100 % of control | dose: 400.0 mg/kg/injection, schedule: Q01DX009 (ip), vehicle: Klucel (hydroxypropylcellulose) (HPC) 100 % of control

Cc1ccc(-c2csc(=NCCc3ccccc3)n2-c2ccc(C)cc2)cc1
inactive: dose: 12.5 mg/kg/injection, schedule: Q04DX002 (ip), vehicle: saline with Tween-80 97 % of control | [9] 99 % of control | [10] 88 % of control | [11] 88 % of control | dose: 400.0 mg/kg/injection, schedule: Q04DX002 (ip), vehicle: saline with Tween-80 93 % of control

CC(C)(C)[P+](C)(C)c1ccccc1
inactive: dose: 12.5 mg/kg/injection, schedule: Q04DX003 (ip), vehicle: Klucel (hydroxypropylcellulose) (HPC) 105 % of control | dose: 25.0 mg/kg/injection, schedule: Q04DX003 (ip), vehicle: Klucel (hydroxypropylcellulose) (HPC) 100 % of control

O=C1C2CC=CCC2C(=O)N1CC[P+](c1ccccc1)(c1ccccc1)c1ccccc1 (stereo unspecified)
inactive: dose: 0.78 mg/kg/injection, schedule: Q01DX009 (ip), vehicle: water 100 % of control | dose: 1.56 mg/kg/injection, schedule: Q01DX009 (ip), vehicle: water 102 % of control and 95 % of control | dose: 3.13 mg/kg/injection, schedule: Q01DX009 (ip), vehicle: water 102 % of control and 106 % of control | dose: 6.25 mg/kg/injection, schedule: Q01DX009 (ip), vehicle: water 112 % of control | dose: 12.5 mg/kg/injection, schedule: Q01DX009 (ip), vehicle: water 115 % of control and 116 % of control | dose: 25.0 mg/kg/injection, schedule: Q01DX009 (ip), vehicle: water 115 % of control

O=C(CSc1ncnc2nc[nH]c12)c1ccc([N+](=O)[O-])cc1
inactive: [3] 92 % of control | [4] 102 % of control | [15] 112 % of control

N=c1c2[nH]cnc2ncn1O
inactive: dose: 60.0 mg/kg/injection, schedule: Q01DX005 (ip), vehicle: Klucel (hydroxypropylcellulose) (HPC) 92 % of control | dose: 120.0 mg/kg/injection, schedule: Q01DX005 (ip), vehicle: Klucel (hydroxypropylcellulose) (HPC) 93 % of control

COc1ccc(Cl)cc1C(=O)NCCc1ccc(CCC(=O)O)cc1
inactive: [12] 99 % of control | [13] 98 % of control | [14] 102 % of control

Reference: PubChem BioAssay AID330 (DTP/NCI, 2004)
